The subject of assay [1] is Mus musculus. The assay can be described thus: Anticonvulsant activity in Swiss albino mouse assessed as protection against subcutaneous pentylenetetrazol-induced seizures at 420 umol/kg, ip administered 30 mins before pentylenetetrazole challenge measured after 30 mins relative to stiripentol. The class given is functional.
The test system of assay [2] is Mus musculus. Kind of assay: Anticonvulsant activity in Swiss albino mouse assessed as maximal electroshock-induced seizures at 420 umol/kg, ip administered 30 mins before electroshock challenge. It is filed as functional, organism-based. A general note: The maximal electroshock test induces tonic seizures with an electrical stimulus.
For assay [3], the system named is Mus musculus. The assay can be described thus: Anticonvulsant activity in Swiss albino mouse assessed as protection against subcutaneous pentylenetetrazol-induced seizures at 420 umol/kg, ip administered 30 mins before pentylenetetrazole challenge measured after 30 mins. It is filed as functional.

Each structure is given as a SMILES string. Activity calls are given as the source filed them. The rule behind the calls is not given here.

Turning to `CC(C)(C)C1=NN(C(=O)c2ccccc2)C(c2ccc3c(c2)OCO3)C1` (racemic), the Activity in the assay with Mus musculus [1] was found to be 1.27%; in the assay with Mus musculus [3] it was 66%. For the same compound, in the assay with Mus musculus [2], the result was inactive.

Source of the values: ChEMBL document CHEMBL2163283, “Design and synthesis of novel stiripentol analogues as potential anticonvulsants” (Eur J Med Chem, 2012).
